Calls of active or inactive are those of the source. The rule behind the calls is not given here.
Target: Toxin B (TcdB) glycohydrolase, Clostridioides difficile 630
Assay: TcdB glycohydrolase inhibitors, dose response, biochemical, cherry-pick, plate reader (AID 720512)
Conditions: recombinant TcdB glycohydrolase activity; for activity change, negative = inhibition: at 19.5 µM (top of the series)

SMILES	activity change, negative = inhibition	AC50
Nc1cc(=O)[nH]c(SCC(=O)Nc2ccccc2Sc2ccc(Cl)cc2)n1	inactive	–
CC(C(=O)OCC(=O)c1c(N)n(C)c(=O)n(C)c1=O)N1C(=O)c2ccccc2C1=O (stereo unspecified)	inactive	–
CCOc1ccccc1-n1c(C)nc2cc(C(=O)O)ccc21	inactive	–
Cc1ccc(C(=O)Nc2ncc([N+](=O)[O-])s2)cc1	inactive	–
OCC[C@H]1C[C@H](O)[C@@H](O)[C@@]2(Cc3ccccc3CO2)O1	inactive	–
CN1C(=O)c2cc(NC(=O)c3cccc(F)c3)ccc2OC[C@H]2O[C@H](CC(=O)NCC3CCCCC3)CC[C@@H]21	inactive	–
COC(=O)C(C(=O)OC)C(CC(=O)c1ccc(Br)cc1)c1ccccc1 (stereo unspecified)	inactive	–
COc1ccc2cc3c(nc2c1)OCC3	inactive	–
CC(=O)Nc1ccc(S(=O)(=O)N2CCCC(C(=O)O)C2)cc1 (stereo unspecified)	inactive	–
O=C(O)c1ccc2c(c1)N(Cc1cccc(F)c1)C(=O)CS2	inactive	–
Cc1ccc(S(=O)(=O)Nc2cccnc2Oc2ccc(Cl)cc2)cc1	inactive	–
C[C@@H]1CN([C@@H](C)CO)S(=O)(=O)c2ccc(-c3ccncc3)cc2O[C@@H]1CN(C)Cc1ccc(Oc2ccccc2)cc1	inactive	–
COc1ccc(C2=NS(=O)(=O)N(C)C(C(=O)N(C)Cc3ccccc3)=C2)cc1OC	inactive	–
O=C(CNS(=O)(=O)c1ccccc1)N/N=C/c1ccc(O)cc1	inactive	–
COc1ccccc1/C=C/c1onc(C)c1S(=O)(=O)N1CCC(C(=O)NC2CCCCCC2)CC1	inactive	–
Cc1ccc(-n2c(SCC(=O)O)nc3c(sc(=S)n3-c3ccc(C)c(C)c3)c2=O)cc1	–	> 39 µM (inactive)
CC(C)CNC(=O)c1c(F)c(F)c(F)c(F)c1F	inactive	–
COc1cccc(Oc2ccc3nnc(C(F)(F)F)n3n2)c1	inactive	–
NS(=O)(=O)c1cccc(NC(=O)c2ccc(NS(=O)(=O)c3cccc([N+](=O)[O-])c3)cc2)c1	inactive	–
COc1ccc(/C=C2\CCC(C3CCCC3)C2=O)cc1 (stereo unspecified)	inactive	–
Cc1cc(C(=O)N2CCN(Cc3ccccc3)CC2)ccc1[N+](=O)[O-]	inactive	–
COc1cc(/C=N/NC(=O)c2c(C)nc3ccc(Cl)cn23)cc(OC)c1OC	inactive	–
O=C(Cc1ccccc1)NNC(=S)NC(=O)c1cccnc1	inactive	–

SMILES	activity change, negative = inhibition	AC50
Cc1cccc2sc(NNC(=O)C3COc4ccccc4O3)nc12 (stereo unspecified)	inactive	–
O=C(O)c1ccc(/C=N/NC(=S)NCCN2CCOCC2)cc1	inactive	–
CCCCn1c(=S)[nH]c2c(=O)n(C)c(=O)n(C)c21	inactive	–
COc1ccc([N+](=O)[O-])cc1NC(=S)NC(C)=O	inactive	–
CC1=NCCc2c1[nH]c1cc(O)ccc21	–	9.94 µM
Cc1noc(C)c1NC(=O)N(C)C[C@@H]1Oc2ccc(NC(=O)C3CCCCC3)cc2C(=O)N([C@@H](C)CO)C[C@H]1C	inactive	–
CCn1c(=S)[nH]c2c(=O)n(C)c(=O)n(C)c21	–	10.8 µM
COc1cc(NC(=O)CCc2nnc3ccc(N4CCC(C)CC4)nn23)cc(OC)c1	inactive	–
Cc1c(CCCC(=O)O)sc(N)c1C(=O)c1cccc(C(F)(F)F)c1	inactive	–
COc1ccccc1C=C1SC(=S)NC1=O	inactive	–
O=C(c1cn(-c2ccccc2)nc1-c1ccncc1)n1nnc2ccccc21	inactive	–
CC(OC(=O)c1cccnc1Cl)C(=O)NC1CCCCC1 (stereo unspecified)	inactive	–
C=C1CCN(Cc2ccccc2)S(=O)(=O)c2ccccc21	inactive	–
O=C(Nc1cc(S(=O)(=O)N2CCOCC2)ccc1N1CCOCC1)c1ccccc1Cl	inactive	–
CCCCN(C)c1c(C)nc2ccc(C(=O)NCc3cccs3)cn12	inactive	–
Cc1nc(SCC(=O)N2CCNC2=O)c(C#N)c(C)c1C	inactive	–
CC(Oc1ccc(Cl)cc1Cl)C(=O)Nc1ccc(O)cc1 (stereo unspecified)	inactive	–
CCN(CCN(C)C)C(=O)C1CCN(S(=O)(=O)c2c(C)noc2/C=C/c2ccccc2F)CC1	inactive	–
COc1ccc(/C=C/c2nc3ccccc3n2C)cc1	inactive	–
CCOc1ccc2c(C)nc(NC3=NC(C)(C)C=C(C)N3)nc2c1	inactive	–
O=C(c1ccc([N+](=O)[O-])cc1)N1CCN(c2cccc3[nH]ccc23)CC1	inactive	–
COc1ccc(CNC(=O)C2=CC(c3ccc(OC)c(OC)c3)=NS(=O)(=O)N2C)cc1	inactive	–
O=C(CNS(=O)(=O)c1ccc([N+](=O)[O-])cc1)N/N=C\c1ccc(O)cc1	inactive	–

SMILES	activity change, negative = inhibition	AC50
CCOC(=O)Nc1ccc(OC(=O)Oc2ccc(NC(=O)OCC)cc2)cc1	inactive	–
CC1CC(=O)N(c2ccc(NCCc3ccc(O)cc3)c([N+](=O)[O-])c2)C1=O (stereo unspecified)	inactive	–
CC(C)CC(=O)N1CCN(Cc2ccc(Br)cc2)CC1	inactive	–
Cc1cc(C(=O)CSc2nc(N)cc(=O)[nH]2)c(C)n1CC1CCCO1 (stereo unspecified)	inactive	–
COc1cc2[nH]c(=S)nc(NCCC(C)C)c2cc1OC	inactive	–
Cc1ccc2c(C)c3ccc4ccccc4c3c[n+]2c1	inactive	–
COc1cc2[nH]c(=S)n(Cc3cccs3)c(=O)c2cc1OC	inactive	–
C[C@H](CO)N1C[C@H](C)[C@@H](CN(C)CC2CCCCC2)Oc2ccc(NC(=O)CCN3CCOCC3)cc2C1=O	inactive	–
O=c1c2ccccc2oc2ccc(NCCCN3CCOCC3)cc12	inactive	–
S=C(c1cn(Cc2ccccc2)c2ccccc12)N1CCOCC1	inactive	–
O=S(=O)(c1ccccc1)N1CCN(Cc2nnc(-c3ccccc3)o2)CC1	inactive	–
CC(OC(=O)[C@@H](NC(=O)OCc1ccccc1)C(C)C)C(=O)Nc1ccc(N2CCOCC2)cc1 (stereo partly specified)	inactive	–
Cc1cc(C)c2sc(NNC(=O)C3COc4ccccc4O3)nc2c1 (stereo unspecified)	inactive	–
Cc1cccc(/C=C/c2onc(C)c2S(=O)(=O)N2CCC(C(=O)N3CCC(C)CC3)CC2)c1	inactive	–
NS(=O)(=O)c1ccc(CCNC(=O)c2ccc(CS(=O)(=O)c3ccc(Br)cc3)o2)cc1	inactive	–
CC(C)(C)N1[C@@H](CC(=O)O)c2cc(C(F)(F)F)ccc2S1(=O)=O	inactive	–
O=C(NNc1nc2c(F)cc(F)cc2s1)C1COc2ccccc2O1 (stereo unspecified)	inactive	–
Nc1cc(N)cc(C(=O)OCC(=O)Nc2cc(S(=O)(=O)N3CCCCC3)ccc2Cl)c1	inactive	–
Nc1ccc2c(c1)Nc1ccccc1CC2	inactive	–
Cc1cc(=O)oc2c(N)c(O)ccc12	inactive	–
Nc1nc(CCOc2ccc(F)cc2)cs1	inactive	–
COc1cc(/C=N/NC(=O)c2nnn(-c3nonc3N)c2C(C)C)ccc1O	inactive	–
CC(/C=N/n1c(-c2ccncc2)n[nH]c1=S)=C\c1ccco1	inactive	–

SMILES	activity change, negative = inhibition	AC50
CCC(=O)N1CC[C@@H]2[C@H]1c1cc(-c3ccccc3)ccc1N(C)[C@H]2CO	–	> 42 µM (inactive)
Cc1ccc(C2=NS(=O)(=O)N(C)C(C(=O)NCc3cccs3)=C2)cc1	inactive	–
O=C(Nc1ccc(O)cc1)C1CCCN1S(=O)(=O)c1ccc(F)cc1 (stereo unspecified)	inactive	–
CN1C(=O)C(c2nnc(Nc3cccc4ccccc34)s2)C2CC1(C)Oc1ccccc12 (stereo unspecified)	inactive	–
O=C(NC(=S)NCc1ccccc1)c1cccnc1	inactive	–
COc1ccc(CC(=O)C2C(=O)N(C)c3ccccc32)cc1OC (stereo unspecified)	inactive	–
O=C(OCn1nnc2ccccc2c1=O)c1cc2ccccc2o1	inactive	–
O=C(NCc1ccncc1)[C@@H]1CCCN1C(=O)[C@@H]1CCCN1	inactive	–
NS(=O)(=O)c1ccc(NC(=S)NCc2ccc3c(c2)OCO3)cc1	inactive	–
O=C(NCc1nnc2c(C(F)(F)F)cc(Cl)cn12)c1cccnc1	inactive	–
CC(=O)C(Sc1nccc(-c2cccs2)n1)C(C)=O	inactive	–
CCc1cc(/C(Cc2ccccn2)=N\O)c(O)cc1O	inactive	–
O=C1Nc2ccc(Br)cc2C1Cc1ccccc1F (stereo unspecified)	–	> 39 µM (inactive)
COc1cc2c(cc1O)CC[n+]1cc3c(OC)c(OC)ccc3cc1-2	–	> 39 µM (inactive)
Cc1[nH]c(-c2ccc(F)cc2)cc1C(=O)N1CCN(c2ccccc2)CC1	inactive	–
CN(c1ccc(O)cc1)c1nc(-c2cccnc2)cs1	inactive	–
COCCNc1cc(N)c([N+](=O)[O-])cc1[N+](=O)[O-]	inactive	–
Cc1c(CNC(=O)c2c([N+](=O)[O-])cnn2C)cnn1C	inactive	–
Cc1onc(-c2ccccc2Cl)c1C(=O)Nc1cnn(Cc2ccccc2)c1	inactive	–
CCCC(=O)Nc1ccc2c(c1)OC[C@H](C)N(CC1CCCC1)C[C@H](C)[C@@H](OC)CN(C)C2=O	inactive	–
COc1ccc(-c2nc(N)ncc2-c2ccccc2OC)c(O)c1	inactive	–
COc1cccc(C(=O)Nc2ccc3c(c2)C(=O)N(C)[C@@H]2CC[C@H](CC(=O)NCCCN4CCOCC4)O[C@@H]2CO3)c1	inactive	–
